Laboratory results as given in US20150313215A1, “PESTICIDAL MIXTURES” (priority 2010, published 2015).

Legend:
Format in all cases: in vivo
Phakopsora pachyrhizi = experiment: Greenhouse experiments, control of soybean rust on soybean, foliar spray; settings: Halo methylene benzonorbornene amide 1 gai/ha
Description: Control of Phakopsora pachyrhizi on Soybean
Greenhouse experiments were conducted to evaluate the ability of cis-jasmone to enhance fungicidal activity of a single agrochemical active ingredient and also of a mixture of two agrochemical active ingredients. A fungicidally active ingredient, N-[(1RS,4SR)-9-(Dichloromethylidene)-1,2,3,4-tetrahydro-1,4-methanonaphthalen-5-yl]-3-(difluoromethyl)-1-methyl-1H-pyrazole-4-carboxamide (“halo methylene benzonorbornene amide”), alone or in admixture with another fungicidally active ingredient, azoxystrobin, controls soybean rust when applied as a foliar spray. See data in Table 7.

[1] = test system: Two Spotted Spider Mite Tetranychus urticae; experiment: Field trial, control of two spotted spider mite on kidney beans; settings: 2 foliar sprays at 10 day intervals, 11 evaluation dates Day 3 to Day 35
Description: Control of Two Spotted Spider Mite Tetranychus urticae on Kidney Beans
A field trial using a plot size of 20 m^2, 3 replicates and 2 foliar sprays at 500 I/ha at 10 day intervals was assessed for average mite population/20 leaves/plot from 11 evaluation dates from Day 3 to Day 35 after treatment.

[2] = test system: Currant-Lettuce Aphid Nasonova ribis-nigri; experiment: Field trial, control of currant-lettuce aphid on lettuce (Example 3); settings: 1 foliar spray, apterous aphids
Description: (§1) Control of Currant-Lettuce Aphid Nasonova ribis-nigri on Lettuce
A field trial using plots of 20 plants, 4 replicates and 1 foliar spray was assessed for number of apterous aphids/plant on Day 3, Day 7 and Day 10 after treatment.

Thrips Thrips Tabaci = experiment: Field trial, control of thrips on cotton; settings: for Average Number of Thrips per Plant: 1 foliar spray, adult thrips; for average number of thrips per plant observed across all days monitored: Day 1 to Day 22
Description: Control of Thrips Thrips Tabaci on Cotton
A field trial using 21 m^2 plots, 3 replicates and 1 foliar spray was assessed for number of adult thrips/plant on Day 1, Day 3, Day 5, Day 8, Day 10, Day 15, and Day 22 after treatment. Data for untreated control are an average of four control plots.

Aphid Aphis gossypii [3] = experiment: Field trial, control of aphid on cotton (Example 5); settings: for Average Number of Aphids per Plant: 1 foliar spray, apterous adults; for average number of aphids per plant observed across all days monitored: Day 1 to Day 22
Description: (§2) Control of Aphid Aphis gossypii on Cotton
A field trial using 21 m^2 plots, 3 replicates and 1 foliar spray was assessed for number of apterous adults/plant on Day 1, Day 3, Day 5, Day 8, Day 10, Day 15, and Day 22 after treatment. Data for untreated control are an average of four control plots.

Aphid Aphis gossypii [4] = experiment: Field trial, control of aphid on cotton (Example 6); settings: 1 foliar spray, 8 evaluation dates from Day 3 to Day 29
Description: as §2
(§3) A field trial using plots of 20 plants, 3 replicates and 1 foliar spray was assessed for number of alate and apterous aphids/plant from 8 evaluation dates from Day 3 to Day 29 after treatment. Data for untreated control are an average of four control plots (each 3 replicates; 240 total plants) which were interspersed within the treated plots.

[5] = test system: Currant-Lettuce Aphid Nasonova ribis-nigri; experiment: Field trial, control of currant-lettuce aphid on lettuce (Example 2); settings: 1 foliar spray; for Average Number of Aphids per Plant: apterous aphids
Description: as §1
as §3, with “of” for “of alate and”, “and number of infected plants on” for “from 8 evaluation dates from”, “4,” for “3 to”, “8, Day 11 and Day 14” for “29”

[6] = Cis-jasmone 50 gai/hl, Day 1 after treatment
[7] = Cis-jasmone 50 gai/hl, Day 3 after treatment
[8] = Cis-jasmone 50 gai/hl, Day 5 after treatment
[9] = Cis-jasmone 50 gai/hl, Day 8 after treatment
[10] = Cis-jasmone 50 gai/hl, Day 10 after treatment
[11] = Cis-jasmone 50 gai/hl, Day 15 after treatment
[12] = Cis-jasmone 50 gai/hl, Day 22 after treatment
[13] = Cis-jasmone 50 gai/hl, Day 4 after treatment
[14] = Cis-jasmone 50 gai/hl, Day 11 after treatment
[15] = Cis-jasmone 50 gai/hl, Day 14 after treatment
[16] = Thiamethoxam 30 gai/hl, Day 1 after treatment
[17] = Thiamethoxam 30 gai/hl, Day 3 after treatment
[18] = Thiamethoxam 30 gai/hl, Day 5 after treatment
[19] = Thiamethoxam 30 gai/hl, Day 8 after treatment
[20] = Thiamethoxam 30 gai/hl, Day 10 after treatment
[21] = Thiamethoxam 30 gai/hl, Day 15 after treatment
[22] = Thiamethoxam 30 gai/hl, Day 22 after treatment
[23] = Thiamethoxam 30 gai/hl, Day 4 after treatment
[24] = Thiamethoxam 30 gai/hl, Day 11 after treatment
[25] = Thiamethoxam 30 gai/hl, Day 14 after treatment

Molecule: Cn1cc(C(=O)Nc2cccc3c2[C@@H]2CC[C@H]3C2=C(Cl)Cl)c(C(F)F)n1 (racemic) [Halo methylene benzonorbornene amide, N-[(1RS,4SR)-9-(Dichloromethylidene)-1,2,3,4-tetrahydro-1,4-methanonaphthalen-5-yl]-3-(difluoromethyl)-1-methyl-1H-pyrazole-4-carboxamide]
- Percentage Fungicidal Activity (Phakopsora pachyrhizi): 20%

Molecule: abamectin
- % pest control versus untreated check ([1]; Abamectin 0.45 gai/hl): 41.22%
- % pest control versus untreated check ([1]; Abamectin 0.9 g active ingredient/hl): 56.56%

Molecule: CC/C=C\CC1=C(C)CCC1=O [Cis-jasmone, cis-jasmone]
- Average Number of Aphids per Plant ([2]; Cis-jasmone at 100 gai/hl, Day 3 after treatment): 2.963
- Average Number of Aphids per Plant ([2]; Cis-jasmone at 100 gai/hl, Day 7 after treatment): 6.563
- Average Number of Aphids per Plant ([2]; Cis-jasmone at 100 gai/hl, Day 10 after treatment): 12.375
- Average Number of Thrips per Plant (Thrips Thrips Tabaci; [6]): 24
- average number of thrips per plant observed across all days monitored (Thrips Thrips Tabaci; Cis-jasmone 50 gai/hl): 39
- Average Number of Thrips per Plant (Thrips Thrips Tabaci; [7]): 19
- Average Number of Thrips per Plant (Thrips Thrips Tabaci; [8]): 28
- Average Number of Thrips per Plant (Thrips Thrips Tabaci; [9]): 48
- Average Number of Thrips per Plant (Thrips Thrips Tabaci; [10]): 58
- Average Number of Thrips per Plant (Thrips Thrips Tabaci; [11]): 65
- Average Number of Thrips per Plant (Thrips Thrips Tabaci; [12]): 32
- Average Number of Aphids per Plant (Aphid Aphis gossypii [3]; [6]): 40
- average number of aphids per plant observed across all days monitored (Aphid Aphis gossypii [3]; Cis-jasmone 50 gai/hl): 61
- Average Number of Aphids per Plant (Aphid Aphis gossypii [3]; [7]): 33
- Average Number of Aphids per Plant (Aphid Aphis gossypii [3]; [8]): 45
- Average Number of Aphids per Plant (Aphid Aphis gossypii [3]; [9]): 126
- Average Number of Aphids per Plant (Aphid Aphis gossypii [3]; [10]): 139
- Average Number of Aphids per Plant (Aphid Aphis gossypii [3]; [11]): 27
- Average Number of Aphids per Plant (Aphid Aphis gossypii [3]; [12]): 14
- Average Number of Aphids/Plant, Alate (Aphid Aphis gossypii [4]; Cis-Jasmone 50 gai/hl): 18
- Average Number of Aphids/Plant, Apterous (Aphid Aphis gossypii [4]; Cis-Jasmone 50 gai/hl): 260
- Number of Infested Plants (out of 60) [5, 13]: 21
- Average Number of Aphids per Plant [5, 13]: 0.57
- Number of Infested Plants (out of 60) [5, 9]: 48
- Average Number of Aphids per Plant [5, 9]: 3.28
- Number of Infested Plants (out of 60) [5, 14]: 59
- Average Number of Aphids per Plant [5, 14]: 8.02
- Number of Infested Plants (out of 60) [5, 15]: 60
- Average Number of Aphids per Plant [5, 15]: 19.25
- % pest control versus untreated check ([1]; Cis-jasmone 5 gai/hl, mite population/20 leaves/plot): 51.00%

Molecule: CNC(=O)c1cc(C#N)cc(C)c1NC(=O)c1cc(Br)nn1-c1ncccc1Cl [Cyantraniliprole, cyantraniliprole]
- Average Number of Aphids/Plant, Alate (Aphid Aphis gossypii [4]; Cyantraniliprole 100 gai/hl): 17
- Average Number of Aphids/Plant, Apterous (Aphid Aphis gossypii [4]; Cyantraniliprole 100 gai/hl): 235
- Average Number of Aphids/Plant, Alate (Aphid Aphis gossypii [4]; Cyantraniliprole 200 gai/hl): 16
- Average Number of Aphids/Plant, Apterous (Aphid Aphis gossypii [4]; Cyantraniliprole 200 gai/hl): 179

Molecule: CN1COCN(Cc2cnc(Cl)s2)/C1=N\[N+](=O)[O-] [Thiamethoxam, thiamethoxam]
- Average Number of Aphids per Plant ([2]; Thiamethoxam at 25 gai/hl, Day 3 after treatment): 0.063
- Average Number of Aphids per Plant ([2]; Thiamethoxam at 25 gai/hl, Day 7 after treatment): 0.788
- Average Number of Aphids per Plant ([2]; Thiamethoxam at 25 gai/hl, Day 10 after treatment): 4.813
- Average Number of Thrips per Plant (Thrips Thrips Tabaci; [16]): 31
- average number of thrips per plant observed across all days monitored (Thrips Thrips Tabaci; Thiamethoxam 30 gai/hl): 28
- Average Number of Thrips per Plant (Thrips Thrips Tabaci; [17]): 17
- Average Number of Thrips per Plant (Thrips Thrips Tabaci; [18]): 27
- Average Number of Thrips per Plant (Thrips Thrips Tabaci; [19]): 15
- Average Number of Thrips per Plant (Thrips Thrips Tabaci; [20]): 27
- Average Number of Thrips per Plant (Thrips Thrips Tabaci; [21]): 52
- Average Number of Thrips per Plant (Thrips Thrips Tabaci; [22]): 29
- Average Number of Aphids per Plant (Aphid Aphis gossypii [3]; [16]): 41
- average number of aphids per plant observed across all days monitored (Aphid Aphis gossypii [3]; Thiamethoxam 30 gai/hl): 25
- Average Number of Aphids per Plant (Aphid Aphis gossypii [3]; [17]): 20
- Average Number of Aphids per Plant (Aphid Aphis gossypii [3]; [18]): 23
- Average Number of Aphids per Plant (Aphid Aphis gossypii [3]; [19]): 26
- Average Number of Aphids per Plant (Aphid Aphis gossypii [3]; [20]): 33
- Average Number of Aphids per Plant (Aphid Aphis gossypii [3]; [21]): 20
- Average Number of Aphids per Plant (Aphid Aphis gossypii [3]; [22]): 10
- Number of Infested Plants (out of 60) [5, 23]: 1
- Average Number of Aphids per Plant [5, 23]: 0.05
- Number of Infested Plants (out of 60) [5, 19]: 3
- Average Number of Aphids per Plant [5, 19]: 0.12
- Number of Infested Plants (out of 60) [5, 24]: 15
- Average Number of Aphids per Plant [5, 24]: 1
- Number of Infested Plants (out of 60) [5, 25]: 22
- Average Number of Aphids per Plant [5, 25]: 2.25
